Measurements from US20230295166A1, “ATR INHIBITORS AND USES THEREOF” (ANTENGENE DISCOVERY LIMITED, priority 2020, published 2023).

Columns and labels:
ATR kinase = ATR kinase (Homo sapiens (Human), UniProt Q13535); assay: ATR inhibition assay (mobility shift assay, phosphorylation of FAM-RAD17); assay type: biochemical; details: ATR kinase (Eurofins), substrate FAM-RAD17, mobility shift
Method: Assay 1: ATR Inhibition Assay
Detection of ATR kinase activity utilized the Mobility shift assay to measure the phosphorylation of the substrate protein FAM-RAD17 (GL, Cat. No. 514318, Lot. No. P19042-MJ524315). The assay was developed and conducted at Chempartner. All the test compounds were dissolved in 100% DMSO at concentration of 20 mM, then prepare compounds and conducted the assay as follows: • 1) Transfer 80 μl 20 mM compound to 40 μl of 100% DMSO in a 96-well plate. • 2) Serially dilute the compound by transferring 20 μl to 60 μl of 100% DMSO in the next well and so forth for a total of 10 concentrations. • 3) Add 100 μl of 100% DMSO to two empty wells for no compound control and no enzyme control in the same 96-well plate. Mark the plate as source plate. • 4) Transfer 40 μl of compound from source plate to a new 384-well plate as the intermediate plate. • 5) Transfer 60 nl compounds to assay plate by Echo. • 6) Add ATR kinase (Eurofins, Cat. No. 14-953, Lot. No. D14 JP007N) into Kinase base buffer (50 mM HEPES, pH 7.5; 0.0015% Brij-35; 0.01% Triton) to prepare 2× enzyme solution, then add 10 μl of 2× enzyme solution to each well of the 384-well assay plate, incubate at room temperature for 10 min. • 7) Add FAM-RAD17 and ATP (Sigma, Cat. No. A7699-1G, CAS No. 987-65-5) in the kinase base buffer to prepare 2×peptide solution, then add 10 μl to the assay plate. • 8) Incubate at 28° C. for specified period of time. Add 40 μl of stop buffer (100 mM HEPES, pH 7.5; 0.015% Brij-35; 0.2% Coating Reagent #3; 50 mM EDTA) to stop reaction. • 9) Collect data on Caliper. Convert conversion values to inhibition values.
Percent inhibition=(max−conversion)/(max−min)*100 wherein “max” stands for DMSO control; “min” stands for low control.
Fit the data in XLFit excel add-in version 5.4.0.8 to obtain IC50 values. Equation used is:
Y=Bottom+(Top−Bottom)/(1+(IC50/X)^HillSlope) wherein X means concentration in a format not transformed to logarithms.

LoVo (CCL-229) cells = assay: Tumor cell anti-proliferation assay (CTG assay); assay type: cell-based; details: LoVo human colorectal cancer cells, 96 h, CellTiter-Glo
Method: Assay 2: Tumor Cell Anti-proliferation Assay (CTG Assay)
Human colorectal cancer cells HT-29 (HTB-38) and LoVo (CCL-229) were selected for the CTG assay, the two cell lines were originally obtained from the American Type Culture Collection (ATCC). FBS and appropriate additives were added into base medium to prepare complete medium, then the cell layer was briefly rinsed with 0.25% (w/v) Trypsin-0.038% (w/v) EDTA solution to remove all traces of serum that contains trypsin inhibitor. After that, appropriate volume of Trypsin-EDTA solution was added to flask and cells under an inverted microscope were observed until cell layer was dispersed. At last, appropriate volume of complete growth medium was added and cells were aspirated by gently pipetting. Numbers were collected and counted with Vi-cell XR and cell density was adjusted, cells were seeded into 96-well opaque-walled clear bottom tissue-culture treated plates in the CO2 incubator for 20-24 hours. All the test compounds were at 10 mM in DMSO. Compounds were then added to the cell media in 3-fold serial dilutions, the final DMSO concentration was 0.5%. Plates were incubated for 96 h at 5% CO2, 37° C. Before the measurement, the appropriate volume of CellTiter-Glo Buffer was transferred into the amber bottle containing CellTiter-Glo substrate to reconstitute the lyophilized enzyme/substrate mixture, mixed gently, thereby forming the CellTiter-Glo Reagent (Promega Cat. No. G7573). The plate and its contents were equilibrated to room temperature for approximately 30 minutes, then 100 μL of CellTiter-Glo Reagent was added to the assay plate, the contents were mixed for 2 minutes on an orbital shaker to induce cell lysis, incubated at room temperature for 10 minutes to stabilize luminescent signal. At last the clear bottom was pasted with white back seal and luminescence was recorded with Enspire. IC50 and GI50 values were calculated with XLFit curve fitting software using 4 Parameter Logistic Model Y=Bottom+(Top−Bottom)/(1+(IC50/X)^HillSlope).

ATR kinase, sequence (Q13535 whole entry): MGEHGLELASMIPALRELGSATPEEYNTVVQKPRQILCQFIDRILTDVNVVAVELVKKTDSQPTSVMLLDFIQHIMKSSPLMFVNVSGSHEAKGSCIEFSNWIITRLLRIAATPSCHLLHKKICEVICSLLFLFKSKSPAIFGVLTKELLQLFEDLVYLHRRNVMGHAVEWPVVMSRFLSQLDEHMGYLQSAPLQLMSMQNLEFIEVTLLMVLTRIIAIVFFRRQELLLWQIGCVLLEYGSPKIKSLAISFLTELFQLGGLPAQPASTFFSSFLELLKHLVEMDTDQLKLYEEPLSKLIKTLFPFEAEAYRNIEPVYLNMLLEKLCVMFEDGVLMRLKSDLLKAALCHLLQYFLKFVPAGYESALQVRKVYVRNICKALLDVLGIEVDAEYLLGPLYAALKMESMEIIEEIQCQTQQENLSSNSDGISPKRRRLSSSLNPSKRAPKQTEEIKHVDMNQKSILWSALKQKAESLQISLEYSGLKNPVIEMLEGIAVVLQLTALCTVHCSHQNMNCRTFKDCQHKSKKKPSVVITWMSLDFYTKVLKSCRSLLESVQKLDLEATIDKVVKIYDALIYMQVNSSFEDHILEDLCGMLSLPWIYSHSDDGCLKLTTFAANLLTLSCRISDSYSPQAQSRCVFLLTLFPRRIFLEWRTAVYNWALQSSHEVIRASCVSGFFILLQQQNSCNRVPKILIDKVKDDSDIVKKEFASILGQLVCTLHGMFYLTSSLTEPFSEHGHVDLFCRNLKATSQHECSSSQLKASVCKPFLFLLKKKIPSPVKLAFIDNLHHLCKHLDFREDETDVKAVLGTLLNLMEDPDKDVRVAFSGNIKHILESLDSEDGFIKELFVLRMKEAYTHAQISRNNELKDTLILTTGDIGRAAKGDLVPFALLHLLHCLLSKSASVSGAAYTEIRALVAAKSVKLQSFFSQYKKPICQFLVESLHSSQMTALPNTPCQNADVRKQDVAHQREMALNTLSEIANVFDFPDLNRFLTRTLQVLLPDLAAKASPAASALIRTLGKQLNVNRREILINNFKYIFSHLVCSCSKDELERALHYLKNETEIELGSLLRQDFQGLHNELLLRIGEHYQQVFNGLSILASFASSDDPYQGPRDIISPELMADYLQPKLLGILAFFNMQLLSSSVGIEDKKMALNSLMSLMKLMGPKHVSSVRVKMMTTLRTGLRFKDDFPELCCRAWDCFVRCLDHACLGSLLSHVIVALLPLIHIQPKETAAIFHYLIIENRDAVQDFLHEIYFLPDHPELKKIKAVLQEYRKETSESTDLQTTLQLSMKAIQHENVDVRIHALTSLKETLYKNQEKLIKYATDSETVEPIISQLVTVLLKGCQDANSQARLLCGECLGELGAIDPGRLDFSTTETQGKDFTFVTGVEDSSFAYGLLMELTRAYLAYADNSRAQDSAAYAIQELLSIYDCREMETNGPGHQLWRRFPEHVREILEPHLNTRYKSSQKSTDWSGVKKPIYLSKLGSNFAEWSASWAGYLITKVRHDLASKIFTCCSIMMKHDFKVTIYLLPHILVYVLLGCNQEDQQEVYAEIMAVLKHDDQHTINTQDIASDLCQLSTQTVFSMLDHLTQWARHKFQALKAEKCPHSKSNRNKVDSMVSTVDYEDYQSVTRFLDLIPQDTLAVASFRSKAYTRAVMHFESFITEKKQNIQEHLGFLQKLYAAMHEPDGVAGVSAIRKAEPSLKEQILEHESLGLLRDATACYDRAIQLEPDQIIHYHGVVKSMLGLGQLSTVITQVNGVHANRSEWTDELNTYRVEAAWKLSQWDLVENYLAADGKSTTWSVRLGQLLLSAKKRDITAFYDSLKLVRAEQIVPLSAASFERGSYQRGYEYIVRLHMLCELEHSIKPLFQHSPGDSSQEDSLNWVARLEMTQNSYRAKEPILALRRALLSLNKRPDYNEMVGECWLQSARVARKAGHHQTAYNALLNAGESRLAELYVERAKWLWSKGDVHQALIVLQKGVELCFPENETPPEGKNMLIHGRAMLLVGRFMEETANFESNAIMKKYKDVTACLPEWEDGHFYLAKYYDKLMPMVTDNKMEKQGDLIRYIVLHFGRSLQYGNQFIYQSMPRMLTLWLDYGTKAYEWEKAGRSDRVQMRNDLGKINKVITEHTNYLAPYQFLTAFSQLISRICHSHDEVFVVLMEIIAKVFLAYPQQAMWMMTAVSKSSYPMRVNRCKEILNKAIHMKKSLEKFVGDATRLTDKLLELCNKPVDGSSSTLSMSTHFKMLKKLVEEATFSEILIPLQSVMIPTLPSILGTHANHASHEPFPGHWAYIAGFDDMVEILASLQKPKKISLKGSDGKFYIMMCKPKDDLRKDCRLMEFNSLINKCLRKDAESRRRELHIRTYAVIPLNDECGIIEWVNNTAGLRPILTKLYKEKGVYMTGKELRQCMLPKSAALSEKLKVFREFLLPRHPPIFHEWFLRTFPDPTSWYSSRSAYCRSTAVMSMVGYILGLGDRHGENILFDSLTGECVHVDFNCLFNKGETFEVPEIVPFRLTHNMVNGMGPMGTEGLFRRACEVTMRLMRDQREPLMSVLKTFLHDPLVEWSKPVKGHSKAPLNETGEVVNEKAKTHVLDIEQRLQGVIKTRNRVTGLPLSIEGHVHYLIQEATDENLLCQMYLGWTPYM
ATR kinase, sequence (Q8WXE1 whole entry partner): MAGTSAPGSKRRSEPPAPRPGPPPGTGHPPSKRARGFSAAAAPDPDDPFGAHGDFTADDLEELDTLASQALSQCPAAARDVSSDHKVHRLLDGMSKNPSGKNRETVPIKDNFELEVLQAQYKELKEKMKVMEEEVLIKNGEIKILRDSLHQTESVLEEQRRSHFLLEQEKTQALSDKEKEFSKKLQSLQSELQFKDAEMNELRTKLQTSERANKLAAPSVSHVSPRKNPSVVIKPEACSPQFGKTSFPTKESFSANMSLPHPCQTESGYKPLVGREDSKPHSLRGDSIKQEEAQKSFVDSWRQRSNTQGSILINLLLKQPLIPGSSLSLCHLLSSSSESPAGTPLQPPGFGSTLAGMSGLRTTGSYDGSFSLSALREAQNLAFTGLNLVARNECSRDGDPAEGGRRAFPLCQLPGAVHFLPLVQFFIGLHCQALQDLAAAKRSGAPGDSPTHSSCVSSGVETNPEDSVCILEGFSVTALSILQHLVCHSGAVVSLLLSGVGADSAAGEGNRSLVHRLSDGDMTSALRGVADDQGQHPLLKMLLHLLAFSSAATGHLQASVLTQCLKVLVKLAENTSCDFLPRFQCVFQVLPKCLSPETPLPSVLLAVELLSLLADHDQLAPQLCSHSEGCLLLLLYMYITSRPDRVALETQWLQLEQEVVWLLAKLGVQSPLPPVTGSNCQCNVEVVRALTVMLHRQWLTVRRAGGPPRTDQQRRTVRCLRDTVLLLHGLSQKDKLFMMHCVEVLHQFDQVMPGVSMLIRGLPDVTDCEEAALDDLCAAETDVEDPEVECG

Compound	IC50 (ATR kinase) [nM]	IC50 (LoVo (CCL-229) cells) [nM]
C[C@@H]1COCCN1c1cc(-c2ccnn2C)n2ncc(-c3cn[nH]c3)c2n1 [Example 2, (R)-3-methyl-4-(7-(1-methyl-1H-pyrazol-5-yl)-3-(1H-pyrazol-4-yl)pyrazolo [1,5-a]pyrimidin-5-yl)morpholine]	> 500	–
C[C@@H]1COCCN1c1cc(-c2ccnn2C)c2ncc(-c3ccn[nH]3)n2n1 [Example 21, (R)-3-methyl-4-(8-(1-methyl-1H-pyrazol-5-yl)-3-(1H-pyrazol-5-yl)imidazo[1,2-b]pyridazin-6-yl)morpholine]	< 100	–
C[C@@H]1COCCN1c1cc(-c2ccn[nH]2)n2ncc(-c3ccn[nH]3)c2n1 [Example 10, (R)-4-(3,7-di(1H-pyrazol-5-yl)pyrazolo[1,5-a]pyrimidin-5-yl)-3-methylmorpholine]	< 100	–
C[C@@H]1COCCN1c1cc(-c2ccnn2C)n2ncc(-c3ccc[nH]3)c2n1 [Example 4, (R)-3-methyl-4-(7-(1-methyl-1H-pyrazol-5-yl)-3-(1H-pyrrol-2-yl)pyrazolo[1,5-a]pyrimidin-5-yl)morpholine]	< 100	–
CCP(=O)(CC)c1cc(N2CCOC[C@H]2C)nn2c(-c3ccn[nH]3)ncc12 [Example 39, (3R)-4-[4-(diethylphosphoryl)-7-(1H-pyrazol-5-yl)imidazo[1,5-b]pyridazin-2-yl]-3-methylmorpholine]	< 100	–
C[C@@H]1COCCN1c1cc(C2([S@@](C)(=N)=O)CC2)n2ncc(-c3ccn[nH]3)c2n1 [Example 7b, (S)-imino(methyl)(1-(5-((R)-3-methylmorpholino)-3-(1H-pyrazol-5-yl)pyrazolo[1,5-a]pyrimidin-7-yl)cyclopropyl)-λ6-sulfanone]	< 100	–
Cc1cc(-c2ncc3c(-c4ccnn4C)cc(N4CC5CCC(C4)O5)nn23)[nH]n1 [Example 79, 3-[4-(1-methyl-1H-pyrazol-5-yl)-7-(3-methyl-1H-pyrazol-5-yl)imidazo[1,5-b]pyridazin-2-yl]-8-oxa-3-azabicyclo[3.2.1]octane]	–	246
Cc1cc(-c2ncc3c(C(C)(C)S(C)(=O)=O)cc(N4CCOC[C@H]4C)nn23)[nH]n1 [Example 42, (R)-3-methyl-4-(7-(3-methyl-1H-pyrazol-5-yl)-4-(2-(methylsulfonyl)propan-2-yl)imidazo[1,5-b]pyridazin-2-yl)morpholine]	–	79.3
Cn1nccc1-c1cc(N2CC3CCC(C2)O3)nn2c(-c3ccn[nH]3)ncc12 [Example 78, 3-[4-(1-methyl-1H-pyrazol-5-yl)-7-(1H-pyrazol-5-yl)imidazo[1,5-b]pyridazin-2-yl]-8-oxa-3-azabicyclo[3.2.1]octane]	–	152
Cc1cc(-c2nsc3c(C4(CO)CCOCC4)cc(N4CCOC[C@H]4C)nc23)[nH]n1 [Example 105, (R)-(4-(3-(3-methyl-1H-pyrazol-5-yl)-5-(3-methylmorpholino)isothiazolo[4,5-b]pyridin-7-yl)tetrahydro-2H-pyran-4-yl)methanol]	–	9
Cc1cc(-c2nsc3c(P(C)(C)=O)cc(N4CCOC[C@H]4C)nc23)n(C2CCCCO2)n1 (stereo partly drawn) [Example 108, dimethyl(3-(3-methyl-1-(tetrahydro-2H-pyran-2-yl)-1H-pyrazol-5-yl)-5-((R)-3-methylmorpholino)isothiazolo[4,5-b]pyridin-7-yl)phosphine oxide]	–	35
C[C@@H]1COCCN1c1cc(C(C)(C)C#N)c2cnc(-c3ccn[nH]3)n2n1 [Example 40, (R)-2-methyl-2-(2-(3-methylmorpholino)-7-(1H-pyrazol-5-yl)imidazo[1,5-b]pyridazin-4-yl)propanenitrile]	–	23.8
Cc1cc(-c2cnc3c(-c4ccnn4C)cc(N4CCOC[C@H]4C)nn23)[nH]n1 [Example 23, (R)-3-methyl-4-(8-(1-methyl-1H-pyrazol-5-yl)-3-(3-methyl-1H-pyrazol-5-yl)imidazo[1,2-b]pyridazin-6-yl)morpholine]	–	446
Cc1cc(-c2nsc3c(-c4ncnn4C)cc(N4CCOC[C@H]4C)nc23)[nH]n1 [Example 102, (R)-3-methyl-4-(7-(1-methyl-1H-1,2,4-triazol-5-yl)-3-(3-methyl-1H-pyrazol-5-yl)isothiazolo[4,5-b]pyridin-5-yl)morpholine]	–	26
Cc1cc(-c2nsc3c(C4(CO)CC4)cc(N4CCOC[C@H]4C)nc23)[nH]n1 [Example 98, (R)-(1-(3-(3-methyl-1H-pyrazol-5-yl)-5-(3-methylmorpholino)isothiazolo[4,5-b]pyridin-7-yl)cyclopropyl)methanol]	–	14
C[C@@H]1COCCN1c1cc(C2(S(C)(=O)=O)CC2)nc(Nc2cc(Cl)n[nH]2)n1 [Example 77, (R)—N-(3-chloro-1H-pyrazol-5-yl)-4-(3-methylmorpholino)-6-(1-(methylsulfonyl)cyclopropyl)pyrimidin-2-amine]	–	1000
Cc1cc(-c2nsc3c(-c4c(C)noc4C)cc(N4CCOC[C@H]4C)nc23)[nH]n1 [Example 73, (R)-4-(7-(3,5-dimethylisoxazol-4-yl)-3-(3-methyl-1H-pyrazol-5-yl)isothiazolo[4,5-b]pyridin-5-yl)-3-methylmorpholine]	–	41
Cc1nnn(C)c1-c1cc(N2CCOC[C@H]2C)nc2c(-c3ccn[nH]3)nsc12 [Example 38, (R)-4-(7-(1,4-dimethyl-1H-1,2,3-triazol-5-yl)-3-(1H-pyrazol-5-yl)isothiazolo[4,5-b]pyridin-5-yl)-3-methylmorpholine]	–	40.4
Cc1noc(C)c1-c1cc(N2CCOC[C@H]2C)nc2c(-c3ccn[nH]3)nsc12 [Example 72, (R)-4-(7-(3,5-dimethylisoxazol-4-yl)-3-(1H-pyrazol-5-yl)isothiazolo[4,5-b]pyridin-5-yl)-3-methylmorpholine]	–	101
Cc1cc(-c2nsc3c(N4CCCCS4(=O)=O)cc(N4CCOC[C@H]4C)nc23)[nH]n1 [Example 82, 2-[3-(3-methyl-1H-pyrazol-5-yl)-5-[(3R)-3-methylmorpholin-4-yl]-[1,2]thiazolo[4,5-b]pyridin-7-yl]-1λ^6,2-thiazinane-1,1-dione]	–	20
C[C@@H]1COCCN1c1cc(-c2ccnn2C)n2ccc(-c3ccn[nH]3)c2n1 [Example 28, (R)-3-methyl-4-(4-(1-methyl-1H-pyrazol-5-yl)-8-(1H-pyrazol-5-yl)pyrrolo[1,2-a]pyrimidin-2-yl)morpholine]	–	471
C[C@@H]1COCCN1c1cc(-c2cccnc2C(F)(F)F)c2snc(-c3ccn[nH]3)c2n1 [Example 101, (3R)-3-methyl-4-[3-(1H-pyrazol-5-yl)-7-[2-(trifluoromethyl)pyridin-3-yl]-[1,2]thiazolo[4,5-b]pyridin-5-yl]morpholine]	–	15.5
C[C@@H]1COCCN1c1cc(C2(O)CCCCC2)c2snc(-c3ccn[nH]3)c2n1 [Example 91, (R)-1-(5-(3-methylmorpholino)-3-(1H-pyrazol-5-yl)isothiazolo[4,5-b]pyridin-7-yl)cyclohexan-1-ol]	–	2
C[C@@H]1COCCN1c1cc(C2(C(N)=O)CCCC2)c2snc(-c3ccn[nH]3)c2n1 [Example 90, 1-{5-[(3R)-3-methylmorpholin-4-yl]-3-(1H-pyrazol-5-yl)-[1,2]thiazolo[4,5-b]pyridin-7-yl}cyclopentane-1-carboxamide]	–	5
